The first experiment addresses T1, human CGT (Homo sapiens, UniProt Q16880).
T1 sequence (Q16880 21-541): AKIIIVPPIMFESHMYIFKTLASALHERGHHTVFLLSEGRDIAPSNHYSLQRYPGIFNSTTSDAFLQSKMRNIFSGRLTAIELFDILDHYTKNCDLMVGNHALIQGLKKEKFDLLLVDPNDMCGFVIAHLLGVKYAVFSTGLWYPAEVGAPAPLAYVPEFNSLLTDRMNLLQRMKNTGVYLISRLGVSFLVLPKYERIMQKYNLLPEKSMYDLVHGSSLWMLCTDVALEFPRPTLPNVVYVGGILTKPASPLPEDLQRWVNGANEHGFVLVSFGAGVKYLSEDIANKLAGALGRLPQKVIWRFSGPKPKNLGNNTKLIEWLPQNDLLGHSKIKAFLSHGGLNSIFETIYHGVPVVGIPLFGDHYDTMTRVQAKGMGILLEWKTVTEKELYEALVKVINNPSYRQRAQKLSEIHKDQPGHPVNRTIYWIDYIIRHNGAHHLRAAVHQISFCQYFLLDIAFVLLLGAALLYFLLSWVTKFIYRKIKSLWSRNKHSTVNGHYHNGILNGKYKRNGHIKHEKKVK
Put plainly: Assay 1: CGT Enzymatic Assay (RapidFire/MS/MS, 0.01% Tween 80). The class given is biochemical. The settings on record: Table 1, Compounds of Formula (I) and Formula (II); CGT enzymatic assay, C6-NBD-dihydro-galactosylceramide readout; read-out: IC50.
For the compound `Cc1ccc(N2C(=O)N(c3ccc(C)cc3)C(O)(c3cccc(C#N)c3)C23COC3)cc1` (stereo not drawn) [Compound 287, 3-(8-hydroxy-6-oxo-5,7-di-p-tolyl-2-oxa-5,7-diazaspiro[3.4]octan-8-yl)benzonitrile], the IC50 (usually the point on the concentration scale where inhibition reaches its midpoint) is less than 1000 nM. Consider `COc1ccc(N2C(=O)N(c3ccc(OC)cc3)C(O)(c3cccc(OC(F)(F)F)c3)[C@H]2C(C)C)cc1` (stereo partly drawn) [Example 329-2, (5R)-4-hydroxy-5-isopropyl-1,3-bis(4-methoxyphenyl)-4-(3-(trifluoromethoxy)phenyl)imidazolidin-2-one], for which the half-inhibitory concentration (IC50) was less than 1000 nM.

Staying with this experiment, now noted: Table 1, Compounds of Formula (I) and Formula (II); CGT enzymatic assay; read-out: IC50.
For `CCC1N(c2ccc(Br)cc2)C(=O)N(c2ccc(Br)cc2)C1(O)c1cccc(OC(F)(F)F)c1` (stereo not drawn) [Compound 83, 1,3-bis(4-bromophenyl)-5-ethyl-4-hydroxy-4-(3-(trifluoromethoxy)phenyl)imidazolidin-2-one], the IC50 is less than 1000 nM.

Turning to `O=C1N(c2ccc(C(F)(F)F)cc2)CC(O)(c2ccccc2)N1c1ccc(C(F)(F)F)cc1` (stereo not drawn) [Example 15, 4-hydroxy-4-phenyl-1,3-bis(4-(trifluoromethyl)phenyl)imidazolidin-2-one], the half-inhibitory concentration (IC50) is greater than 50000 nM. Consider `O=C1N(c2ccccc2)CC(O)(c2ccccc2)N1c1ccc(Br)cc1` (stereo not drawn) [Example 20, 3-(4-bromophenyl)-4-hydroxy-1,4-diphenylimidazolidin-2-one], for which the half-inhibitory concentration (IC50) is greater than 50000 nM.

`CCC1(O)[C@@H](c2ccccc2)N(c2ccc(Br)cc2)C(=O)N1c1ccc(Br)cc1` (stereo partly drawn) [Example 45-2]: the IC50 lay within 10000 to 50000 nM. Regarding `CC(C)[C@@H]1N(c2ccc(C(F)(F)F)cc2)C(=O)N(c2ccc(C(F)(F)F)cc2)C1(O)c1cccc(OC(F)(F)F)c1` (stereo partly drawn) [Example 196-1, (5S)-4-hydroxy-5-isopropyl-4-(3-(trifluoromethoxy)phenyl)-1,3-bis(4-(trifluoromethyl)phenyl)imidazolidin-2-one], the IC50 is less than 1000 nM. As to `N#Cc1cc(Cl)cc(C2(O)CN(c3ccc(Cl)cc3)C(=O)N2c2ccc(Cl)cc2)c1` (stereo not drawn) [Compound 95, 3-(1,3-bis(4-chlorophenyl)-4-hydroxy-2-oxoimidazolidin-4-yl)-5-chlorobenzonitrile], the half-inhibitory concentration (IC50) lay within 1000 to 10000 nM.

As for `CCC[C@@H]1N(c2ccc(Br)cc2)C(=O)N(c2ccc(Br)cc2)C1(O)c1cccc(C(F)(F)F)c1` (stereo partly drawn) [Compound 100-1, (5S)-1,3-bis(4-bromophenyl)-4-hydroxy-5-propyl-4-(3-(trifluoromethyl)phenyl)imidazolidin-2-one], the IC50 is less than 1000 nM. `Cc1cccc(C2(O)[C@@H](C)N(c3ccc(Br)cc3)C(=O)N2c2ccc(Br)cc2)c1` (stereo partly drawn) [Example 29-2]: the 50% inhibitory concentration (IC50) was less than 1000 nM. Take `O=C1N(c2ccc(Br)cc2)C(=O)C(O)(c2ccco2)N1c1ccc(Br)cc1` (stereo not drawn) [Example 198, 1,3-bis(4-bromophenyl)-5-(furan-2-yl)-5-hydroxyimidazolidine-2,4-dione]: the 50% inhibitory concentration (IC50) is greater than 50000 nM. Still for that read-out and setting: the result for `O=C1N(c2ccc(Cl)cc2)CC(O)(c2cccc(Cl)c2)N1c1ccc(Cl)cc1` (stereo not drawn) [Example 39, 4-(3-chlorophenyl)-1,3-bis(4-chlorophenyl)-4-hydroxyimidazolidin-2-one] reads less than 1000 nM; that for `CC(C)(C)c1cccc(C2(O)CN(c3ccc(Br)cc3)C(=O)N2c2ccc(Br)cc2)c1` (stereo not drawn) [Compound 127, 1,3-bis(4-bromophenyl)-4-(3-(tert-butyl)phenyl)-4-hydroxyimidazolidin-2-one], 10000 to 50000 nM; that for `CCC[C@H]1N(c2ccc(Cl)cc2)C(=O)N(c2ccc(Cl)cc2)C1(O)c1cccc(Cl)c1` (stereo partly drawn) [Compound 114-2, (5R)-4-(3-chlorophenyl)-1,3-bis(4-chlorophenyl)-4-hydroxy-5-propylimidazolidin-2-one], less than 1000 nM. Turning to `O=C1N(c2ccc(Cl)cc2)C2(CC2)C(O)(c2cccc(OC(F)(F)F)c2)N1c1ccc(Cl)cc1` (stereo not drawn) [Example 224, 4,6-bis(4-chlorophenyl)-7-hydroxy-7-(3-(trifluoromethoxy)phenyl)-4,6-diazaspiro[2.4]heptan-5-one], the concentration for half-maximal inhibition (IC50) is less than 1000 nM.
